Results taken from US9145415B2, “Nitrogen-containing heterocyclic compound or salt thereof” (FUJIFILM Corporation, priority 2012, dated 2015).
pIC50: −log10 of the molar value. Where two headings read alike, the source gives them in different places.

Columns and labels:
Molm-13 cells = assay: Leukemia cell proliferation inhibition test (ATPlite), Molm-13; type: cell-based; settings: Homo sapiens, read-out: MOLM13 cell proliferation inhibition effect
Outline: (§1)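 Proliferation inhibition is quantified from total cellular ATP, measured by luciferase luminescence, after cells grow with compound for 72 hours. The GI50 is the concentration giving half the signal of the 0.1% DMSO control, fitted to a sigmoid curve from duplicate points.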

[1] = biological target: T1, human FLT3 protein (FLT3 (WT)) (Homo sapiens, UniProt P36888); assay: FLT3 inhibition test (FLT3 enzyme inhibition, time-resolved fluorescence of substrate peptide phosphorylation); type: biochemical; settings: read-out: FLT3 (WT) enzyme inhibition activity
T1 construct: human FLT3 protein (intracellular region, 564 to 993 aa); GST; purchased Carna Biosciences; host or cells: baculovirus expression system
T1 sequence (P36888 564-993): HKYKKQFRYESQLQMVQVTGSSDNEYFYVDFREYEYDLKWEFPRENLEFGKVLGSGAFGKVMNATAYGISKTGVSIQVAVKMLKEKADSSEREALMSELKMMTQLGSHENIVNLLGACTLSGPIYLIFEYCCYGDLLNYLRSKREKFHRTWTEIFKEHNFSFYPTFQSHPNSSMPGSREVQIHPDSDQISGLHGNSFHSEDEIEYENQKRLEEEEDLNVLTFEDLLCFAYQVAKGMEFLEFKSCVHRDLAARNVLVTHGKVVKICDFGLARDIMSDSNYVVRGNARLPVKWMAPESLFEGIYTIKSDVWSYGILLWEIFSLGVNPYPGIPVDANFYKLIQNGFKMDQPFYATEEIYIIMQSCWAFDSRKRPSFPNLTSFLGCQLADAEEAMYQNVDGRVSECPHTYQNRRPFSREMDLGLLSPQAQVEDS
Outline: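 Wild-type human FLT3 (1.2 μg) pre-incubated with compound 15 min at 25° C in 100 mM HEPES pH 7.5, 10 mM MgCl2, 25 mM NaCl, 1 mM DTT. Reaction started with substrate peptide and ATP (final 50 μM), run 30 min at 25° C; phosphorylation read by time-resolved fluorescence.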

MV4-11 cells = assay: Leukemia cell proliferation inhibition test (ATPlite), MV4-11; type: cell-based; settings: Homo sapiens, read-out: MV4-11 cell proliferation inhibition effect
Outline: as §1

[2] = MOLM-13, 72 h, Molm-13, 72 hours culture, ATPlite, GI50 per method
[3] = GST-fused human FLT3 (564 to 993 aa), ATP 50 μM
[4] = MV4-11, 72 h, MV4-11, 72 hours culture, ATPlite, GI50 per method

pIC50 (Molm-13 cells; [2]) | pIC50 [1, 3] | pIC50 (MV4-11 cells; [4]) | pIC50 (Molm-13 cells; MOLM-13, MOLM13 cell) | pIC50 ([1]; FLT3 (WT)) | pIC50 (MV4-11 cells; MV4-11, MV4-11 cell) | SMILES
7.00 to 8.00 | > 8.00 | > 8.00 |  |  |  | CCCNc1nc(Nc2ccc(C)nc2)ncc1C#CCCCNC(=O)[C@H](C)N(C)C(=O)/C=C/CN(C)C [Compound 21-17]
7.00 to 8.00 | 7.00 to 8.00 | 7.00 to 8.00 |  |  |  | CCCNc1nc(Nc2cnc(C)c(C)c2)ncc1C#CCCCNC(=O)[C@H](C)N(C)C(=O)/C=C/CN(C)C [Compound 21-18]
> 8.00 | > 8.00 | > 8.00 |  |  |  | CCOc1nc(Nc2cccc(F)c2)ncc1C#C[C@@H]1CCC[C@H](NC(=O)[C@H](C)N(C)C(=O)/C=C/CN(C)C)C1 [Compound 21-19]
> 8.00 | > 8.00 | > 8.00 |  |  |  | CCOc1nc(Nc2ccc(C#N)cc2)ncc1C#C[C@@H]1CCC[C@H](NC(=O)[C@H](C)N(C)C(=O)/C=C/CN(C)C)C1 [Compound 21-20]
> 8.00 | > 8.00 | > 8.00 |  |  |  | CC(C)Oc1nc(Nc2cccc(F)c2)ncc1C#C[C@@H]1CCC[C@H](NC(=O)[C@H](C)N(C)C(=O)/C=C/CN(C)C)C1 [Compound 21-21]
> 8.00 | > 8.00 | > 8.00 |  |  |  | CC(C)Oc1nc(Nc2ccc(C#N)cc2)ncc1C#C[C@@H]1CCC[C@H](NC(=O)[C@H](C)N(C)C(=O)/C=C/CN(C)C)C1 [Compound 21-22]
> 8.00 | > 8.00 | > 8.00 |  |  |  | CCNc1nc(Nc2cccc(F)c2)ncc1C#C[C@@H]1CCC[C@H](NC(=O)[C@H](C)N(C)C(=O)/C=C/CN(C)C)C1 [Compound 21-27]
> 8.00 | > 8.00 | > 8.00 |  |  |  | CCNc1nc(Nc2ccc(C#N)cc2)ncc1C#C[C@@H]1CCC[C@H](NC(=O)[C@H](C)N(C)C(=O)/C=C/CN(C)C)C1 [Compound 21-28]
> 8.00 | > 8.00 | > 8.00 |  |  |  | C[C@@H](C(=O)N[C@H]1CCC[C@@H](C#Cc2cnc(Nc3cccc(F)c3)nc2NC2CC2)C1)N(C)C(=O)/C=C/CN(C)C [Compound 21-29]
 |  |  | > 8.00 | > 8.00 | > 8.00 | CC(C)Nc1nc(Nc2cccc(F)c2)ncc1C#C[C@@H]1CCC[C@H](NC(=O)[C@H](C)N(C)C(=O)/C=C/CN(C)C)C1 [Compound 21-30]
 |  |  | > 8.00 | > 8.00 | > 8.00 | CC(C)Nc1nc(Nc2ccc(C#N)cc2)ncc1C#C[C@@H]1CCC[C@H](NC(=O)[C@H](C)N(C)C(=O)/C=C/CN(C)C)C1 [Compound 21-31]

Further lines, the compound ahead of its results:

SMILES | pIC50 (Molm-13 cells; [2]) | pIC50 [1, 3] | pIC50 (MV4-11 cells; [4]) | pIC50 (Molm-13 cells; MOLM-13, MOLM13 cell) | pIC50 ([1]; FLT3 (WT)) | pIC50 (MV4-11 cells; MV4-11, MV4-11 cell)
CCCNc1cc(Nc2ccc(C#N)cc2)ncc1C#CCCCNC(=O)[C@H](C)N(C)C(=O)/C=C/CN(C)C [Compound 18-1, (S,E)-N-(1-((5-(6-((4-cyanophenyl)amino)-4-(propylamino)pyridin-3-yl)-4-pentyn-1-yl)amino)-1-oxopropan-2-yl)-4-(dimethylamino)-N-methyl-2-butenamide] | 7.00 to 8.00 | > 8.00 | 7.00 to 8.00 |  |  | 
CCCNc1cc(Nc2cccc(F)c2)ncc1C(=O)Nc1cccc(NC(=O)[C@H](C)N(C)C(=O)/C=C/CN(C)C)c1 [Compound 18-2, (S,E)-N-(3-(2-(4-(dimethylamino)-N-methyl-2-butenamido)propanamido)phenyl)-6-((3-fluorophenyl)amino)-4-(propylamino)nicotinamide] | 7.00 to 8.00 | > 8.00 | > 8.00 |  |  | 
CCCNc1nc(Nc2ccc(C#N)cc2)nc(C)c1C#CCCCNC(=O)[C@H](C)N(C)C(=O)/C=C/CN(C)C [Compound 19-1, (S,E)-N-(1-((5-(2-((4-cyanophenyl)amino)-4-methyl-6-(propylamino)pyrimidin-5-yl)-4-pentyn-1-yl)amino)-1-oxopropan-2-yl)-4-(dimethylamino)-N-methyl-2-butenamide] | 6.00 to 7.00 | > 8.00 | 6.00 to 7.00 |  |  | 
C[C@@H](C(=O)NCCCC#Cc1cnc(Nc2ccc(C#N)cc2)nc1-c1ccccc1)N(C)C(=O)/C=C/CN(C)C [Compound 20-1, (S,E)-N-(1-((5-(2-((4-cyanophenyl)amino)-4-phenylpyrimidin-5-yl)-4-pentyn-1-yl)amino)-1-oxopropan-2-yl)-4-(dimethylamino)-N-methyl-2-butenamide] | > 8.00 | 7.00 to 8.00 | > 8.00 |  |  | 
C[C@@H](C(=O)NCCCC#Cc1cnc(Nc2ccc(C#N)cc2)nc1-n1cccn1)N(C)C(=O)/C=C/CN(C)C [Compound 20-2, (S,E)-N-(1-((5-(2-((4-cyanophenyl)amino)-4-(1H-pyrazol-1-yl)pyrimidin-5-yl)-4-pentyn-1-yl)amino)-1-oxopropan-2-yl)-4-(dimethylamino)-N-methyl-2-butenamide] | 7.00 to 8.00 | 7.00 to 8.00 | 7.00 to 8.00 |  |  | 
C[C@@H](C(=O)NCCCC#Cc1cnc(Nc2ccc(C#N)cc2)nc1-n1nccn1)N(C)C(=O)/C=C/CN(C)C [Compound 20-3] | > 8.00 | 7.00 to 8.00 | > 8.00 |  |  | 
C[C@@H](C(=O)NCCCC#Cc1cnc(Nc2ccc(C#N)cc2)nc1-n1cncn1)N(C)C(=O)/C=C/CN(C)C [Compound 20-4] | 7.00 to 8.00 | > 8.00 | 7.00 to 8.00 |  |  | 
CNc1nc(Nc2cccc(C#N)c2)ncc1C#C[C@@H]1CCC[C@H](NC(=O)[C@H](C)N(C)C(=O)/C=C/CN(C)C)C1 [Compound 21-1, (E)-N—((S)-1-(((1S,3R)-3-((2-((3-cyanophenyl)amino)-4-(methylamino)pyrimidin-5-yl)ethynyl)cyclohexyl)amino)-1-oxopropan-2-yl)-4-(dimethylamino)-N-methyl-2-butenamide] | > 8.00 | > 8.00 | > 8.00 |  |  | 
C[C@@H](C(=O)NCCCC#Cc1cnc(Nc2ccc(F)c(F)c2)nc1NC1CC1)N(C)C(=O)/C=C/CN(C)C [Compound 21-2] | > 8.00 | > 8.00 | > 8.00 |  |  | 
CCCNc1nc(Nc2ccc(C#N)c(C)c2)ncc1C#CCCCNC(=O)[C@H](C)N(C)C(=O)/C=C/CN(C)C [Compound 21-3] | > 8.00 | > 8.00 | > 8.00 |  |  | 
C[C@@H](C(=O)NCCCC#Cc1cnc(Nc2cccc(F)c2)nc1NCC1CC1)N(C)C(=O)/C=C/CN(C)C [Compound 21-4] | 7.00 to 8.00 | > 8.00 | > 8.00 |  |  | 
CCCNc1nc(Nc2cccc3c2cnn3C)ncc1C#CCCCNC(=O)[C@H](C)N(C)C(=O)/C=C/CN(C)C [Compound 21-5] | 6.00 to 7.00 | 6.00 to 7.00 | < 6.00 |  |  | 
CCCNc1nc(Nc2ccc3c(cnn3C)c2)ncc1C#CCCCNC(=O)[C@H](C)N(C)C(=O)/C=C/CN(C)C [Compound 21-6] | > 8.00 | > 8.00 | > 8.00 |  |  | 
CCCNc1nc(Nc2ccc3nn(C)cc3c2)ncc1C#CCCCNC(=O)[C@H](C)N(C)C(=O)/C=C/CN(C)C [Compound 21-7] | > 8.00 | > 8.00 | > 8.00 |  |  | 
CCCNc1nc(Nc2cnc(N3CCOCC3)c(F)c2)ncc1C#CCCCNC(=O)[C@H](C)N(C)C(=O)/C=C/CN(C)C [Compound 21-8] | 7.00 to 8.00 | 7.00 to 8.00 | 7.00 to 8.00 |  |  | 
CCCNc1nc(Nc2ccc3cnn(C)c3c2)ncc1C#CCCCNC(=O)[C@H](C)N(C)C(=O)/C=C/CN(C)C [Compound 21-9] | > 8.00 | > 8.00 | > 8.00 |  |  | 
CCCNc1nc(Nc2ccc3cn(C)nc3c2)ncc1C#CCCCNC(=O)[C@H](C)N(C)C(=O)/C=C/CN(C)C [Compound 21-10] | 7.00 to 8.00 | > 8.00 | 7.00 to 8.00 |  |  | 
C[C@@H](C(=O)NCCCC#Cc1cnc(Nc2ccc(C#N)cc2)nc1NCC1CC1)N(C)C(=O)/C=C/CN(C)C [Compound 21-12] | > 8.00 | > 8.00 | > 8.00 |  |  | 
CCCOc1nc(Nc2ccc(C#N)cc2)ncc1C#C[C@@H]1CCC[C@H](NC(=O)[C@H](C)N(C)C(=O)/C=C/CN(C)C)C1 [Compound 21-13] | > 8.00 | > 8.00 | > 8.00 |  |  | 
CCCNc1nc(Nc2cnc(NC)c(F)c2)ncc1C#CCCCNC(=O)[C@H](C)N(C)C(=O)/C=C/CN(C)C [Compound 21-14] | 7.00 to 8.00 | > 8.00 | 7.00 to 8.00 |  |  | 
CCCNc1nc(Nc2ccc3scnc3c2)ncc1C#CCCCNC(=O)[C@H](C)N(C)C(=O)/C=C/CN(C)C [Compound 21-15] | 7.00 to 8.00 | > 8.00 | > 8.00 |  |  | 
CCCNc1nc(Nc2cnc3ccc(OC)cc3c2)ncc1C#CCCCNC(=O)[C@H](C)N(C)C(=O)/C=C/CN(C)C [Compound 21-16] | > 8.00 | > 8.00 | > 8.00 |  |  | 
